Source: patent publication US9534008B2, “Small molecule compounds that control plant- and insect-pathogenic nematodes” (California Institute of Technology, priority 2011, dated 2017)
Entries after “also recorded” stand apart in the source; their conditions may differ.

Key:
Panagrellus redivivus = assay: Ascaroside function (Table 12), Panagrellus redivivus; format: in vivo
Protocol: (§1) Various ascarosides and ascaroside blends were administered to various nematodes described below (Table 12). […] A very strong result of affecting nematode behavior is designated in the table as “strong.”

[1] = test system: several of the tested nematode species; assay: Retention assay, across species; format: in vivo; conditions: 1 nM, 1 μM and 1 mM tested
Protocol: OP50 E. coli was grown on a standard 5 cm agar plate (made with standard Nematode Growth Medium). The bacterial lawn was 16 mm in diameter and was grown overnight at 20° C. before being used in trials. Two 4 mm spots (0.6 μL) were placed on opposite sides of the bacterial lawn (using a transparent template to guide spot placement), and several minutes elapsed for the liquid to settle in before placing nematodes down on the assay. Recording began immediately upon worm placement. 0.6 μL of the control was placed on one side of the lawn, and 0.6 μL of the experimental cue was placed on the other side of the lawn, changing the location of the cue throughout trials between left/right and top/bottom to avoid bias.
Nematodes were isolated by gender at the L4 stage the day before being used in trials as developed adults. Worms were evenly divided and placed at two points equidistant from the foci of the scoring region. Trials were recorded for 20 minutes, and frames were collected for analysis at 1 frame per second. Results were averaged from at least three different trials. For every nematode species in this study, a different total number of worms (using water in both scoring regions) was tested to determine the minimum number of worms necessary for consistent unbiased results over a 20 minute trial. The total number of worms used in the multiple species assays depended on that species' optimal parameters. 10 worms were used for P. redivivus males and females, 20 worms were used for C. elegans males and O. dolichuridae males, and 14 worms were used for S. glaseri males. The Automated Software was used to compare worm occupancy in each scoring region over time, and the Chemotaxis Index (Bargmann et al., Cell 74:515-27 (1993), which is hereby incorporated by reference in its entirety) was adapted to score preference or avoidance to each ascaroside.
A video camera attached to the microscope produced a digital video stream, which was then analyzed. The ratio of the time the average worm spent in each region of interest was calculated for every trial. For ease of implementation, all worms in a single experiment were assumed to be roughly the same size. Thus worm pixels were counted instead of whole worms, allowing fractions of a worm in the region of interest to be taken into account. It also eliminated the need for a shape-based worm identification algorithm, and allowed each frame to be analyzed independently. A band-pass filter was applied to each frame to eliminate the effect of uneven lighting and also accentuate the worms against the background. The worm was then identified after thresholding the filtered image. Throughout each experiment, the locations and sizes of the regions of interest were known. Through the filtering described above, it is known which pixels are occupied by worms and which ones are not. Thus, the ratio of worm-pixels to all pixels inside the region of interest can be calculated to produce the worm-occupancy ratio. This calculation was done for every frame, giving a plot output of worm-occupancy ratio vs. time for each region.

S. glaseri = assay: Ascaroside function (Table 12), S. glaseri; format: in vivo
Protocol: as §1

C. elegans [2] = assay: Ascaroside function (Table 12), C. elegans; format: in vivo, Caenorhabditis elegans; parameters: key to Attract Females/Herm. / Promote Dauer Formation / Attract Males: A very strong result of affecting nematode behavior is designated in the table as “strong.”
Protocol: as §1

males = assay: Bioassay of HPLC-purified peak; format: in vivo; conditions: purified peak with retention time of 9.7 minutes
Protocol: A Thermo Finnigan LCQ Deca XP Max was used with electrospray ionization in positive ion mode in the 50-1000 AMU range. The Thermo Separation spectra HPLC system consisted of a P4000 quaternary pump, an AS 3000 auto sampler, and a UV 6000 diode array detector. The solvents were water with (a) 0.1% formic acid and (b) 90% acetonitrile-10% water with 10 mM ammonium formate. The column temperature was maintained at 60° C. and a solvent flow of 1.0 ml/min. The reversed phase column (PLRP-S Polymeric reversed phase column, 250×4.6 mmid, Varian Inc.) was eluted with a solvent composition starting with 90:10 (a,b) for 2 minutes, followed by a gradient to 5:95 in 20 minutes and an additional 5 minutes at 5:95. Ultraviolet absorption was monitored at 190 and 400 nm. Solvent flow between the ultraviolet detector and mass spectroscopy electrospray interface split 9:1 with a low-volume micro needle P450 splitter valve (Upchurch Scientific, Oak Harbor, Wash.), making it possible to obtain spectra of eluted compounds and simultaneously collect 90% of the injected material for bioassay. […] This was confirmed to be ascr#1 using NMR analysis.

C. elegans [3] = assay: Aggregation assay; format: in vivo
Protocol: Aggregation behavior of worms was measured using assays reported in de Bono & Bargmann, Cell 94:679-89 (1998), which is hereby incorporated by reference in its entirety. Aggregation assays were conducted on standard NGM plates. Plates containing indole ascarosides were made by adding the indole ascaroside stock solution to the NGM media before they were poured onto the plates. These plates were dried at room temperature for 2 to 3 days. Control plates were treated similarly, except that ethanol solutions instead of icas solutions were added to the plates, corresponding to the amount of ethanol introduced via the icas solutions. Final ethanol concentrations of the plates were below 0.1% for all conditions. After drying, both control plates and plates containing indole ascarosides were seeded with 150 μl of an overnight culture of E. coli OP50 using a micropipette, and were allowed to dry for 2 days at room temperature. For “low worm density” experiments, 20 worms were placed onto the lawn and left at 20° C. for 3 hours. For “high worm density” experiments, approximately 120 worms were placed onto the bacterial lawn and left at 20° C. for 3 hours. Aggregation behavior was quantified as the number of animals that were in touch with two or more animals at greater than 50% of their body length.

[4] = test system: C. elegans hermaphrodites and males; assay: Spot attraction assay; format: in vivo
Protocol: The spot attraction assays were conducted according to a previously reported method (Pungaliya et al., PNAS 106:7708-13 (2009); Srinivasan et al., Nature 454:1115-18 (2008), which are hereby incorporated by reference in their entirety). For both C. elegans hermaphrodites and males, 50-60 worms were harvested daily at the fourth larval stage (L4) and stored segregatedly by sex at 20° C. overnight, to be used as young adults the following day. For the competition experiments, two conditions were used: 120 nM ascr#3 and 10 nM icas#3 (Condition 1), or 12 μM ascr#3 and 1 μM icas#3 (Condition 2) in water containing 10% ethanol. Aliquots were stored at −20° C. in 20 μL tubes. 10% ethanol in water was used as control.
Attraction assays with hbas#3 were conducted as previously reported (Srinivasan et al., Nature 454:1115-18 (2008); Pungaliya et al., Proc. Natl. Acad. Sci. U.S.A. 106:7708-13 (2009), which are hereby incorporated by reference in their entirety). For the attraction assays, 50-60 hermaphrodite worms were harvested daily at the early fourth larval stage (L4) and stored at 20° C. overnight to be used as young adults the following day. Hbas#3 was dissolved in water containing 10% ethanol. Aliquots were stored at −20° C. in 20 μL tubes. 10% ethanol in water was used as control.

[5] = test system: C. elegans hermaphrodites; assay: Measurement of locomotory parameters (automated worm-tracking system); format: in vivo
Protocol: Reversal frequency and velocity were measured using an automated worm-tracking system (Pungaliya et al., PNAS 106:7708-13 (2009); Srinivasan et al., Nature 454:1115-18 (2008), which are hereby incorporated by reference in their entirety).

ASK neurons = assay: Calcium imaging (G-CaMP), ASK; format: in vivo, C. elegans; conditions: 1 pM to 1 μM
Excerpt: (§2) Transgenic lines that express the genetically encoded Ca^2+ sensor in ASK (kyEx2866) and AIA (kyEx2916) (Macosko et al., Nature 458:1171-75 (2009), which is hereby incorporated by reference in its entirety) were used for calcium imaging. Young adults or adult worms were inserted into an “Olfactory chip” microfluidic device (Chronis et al., Nat. Methods 4:727-31 (2007), which is hereby incorporated by reference in its entirety). Dilutions of icas#3 were done with S-basal buffer (with no cholesterol). As stock solutions of icas#3 contained small amounts of ethanol, equivalent amounts of ethanol were added to the S-basal control flow.
(§3) Imaging was conducted using an inverted Zeiss microscope equipped with an Andor camera. Exposure time for image acquisition was 300 milliseconds. Before imaging the ASK neuron, the worm was exposed to blue light for 3 minutes as ASK responds to the blue light itself. […] Movies were analyzed using custom-made Matlab scripts. The first peak of fluorescence immediately after exposure to buffer or icas#3 was chosen for calculating the average change in fluorescence upon exposure to either buffer or icas#3. The value for this maximum was then subtracted from the mean fluorescence during the 5 seconds before the delivery of icas#3/buffer (corresponding to the region between 5 to 10 seconds in FIG. 2D).

AIA interneurons = assay: Calcium imaging (G-CaMP), AIA; format: in vivo, C. elegans; conditions: 1 μM icas#3
Excerpt: as §2, §3

[6] = test system: C. elegans hermaphrodites; assay: Quadrant chemotaxis assay; format: in vivo
Protocol: Chemotaxis to both non-indole and indole ascarosides was assessed on 10 cm four-quadrant petri plates (Wicks et al., Dev. Biol. 221:295-307 (2000), which is hereby incorporated by reference in its entirety). Each quadrant was separated from adjacent ones by plastic spacers (FIG. 1B). Pairs of opposite quadrants were filled with nematode growth medium (NGM) agar containing either indole ascarosides or non-indole ascarosides at different concentrations. Animals were washed gently in a S-basal buffer, placed in the center of a four-quadrant plate with ascarosides in alternating quadrants, and scored after 15 minutes and 30 minutes. A chemotaxis index was calculated as: (the number of animals on ascaroside quadrants minus the number of animals on buffer quadrants)/(total number of animals).
Chemotaxis to hbas#3 was assessed on 10 cm four-quadrant petri plates (Wicks et al., Dev. Biol. 221:295-307 (2000), which is hereby incorporated by reference in its entirety). Each quadrant was separated from adjacent ones by plastic spacers. Pairs of opposite quadrants were filled with nematode growth medium (NGM) agar containing different concentrations of hbas#3. Animals were washed gently in an S-basal buffer and placed in the center of a four-quadrant plate with ascarosides in alternating quadrants, and scored after 15 minutes and 30 minutes. A chemotaxis index was calculated as: (the number of animals on ascaroside quadrants minus the number of animals on buffer quadrants)/(total number of animals).

For `C[C@H](CCCCC(=O)O)O[C@@H]1O[C@@H](C)[C@H](O)C[C@H]1O` [ascr#1], the “Attract Males” value (Panagrellus redivivus) was “ascr#1”, the “preference for areas conditioned by ascaroside” value [1] was “preferred” and the “Attract Males” value (S. glaseri) was “ascr#1”. For the same compound, the “Attract Males” value (C. elegans [2]) was “ascr#1”, the “Promote Dauer Formation” value (C. elegans [2]) was “ascr#1” and the “activity to males in the bioassay” value (males) was “active”.
With `C[C@H](CCCC/C=C/C(=O)O)O[C@@H]1O[C@@H](C)[C@H](OC(=O)c2c[nH]c3ccccc23)C[C@H]1O` [icas#3] the “aggregation of daf-22 hermaphrodites versus N2” value (C. elegans [3]; 1 pM icas#3, low worm density) was “less aggregation than N2 worms”, the “aggregation of CB4856” value (C. elegans [3]; 1 nM icas#3, low worm density) was “not significantly different from the control” and the “aggregation of npr-1(ad609) hermaphrodites” value (C. elegans [3]; entire tested concentration range, without drop off, low worm density) was “increased aggregation”. The “active concentration window (hermaphrodite attraction and aggregation)” value (C. elegans [3]; in vivo) was “fM-pM; also recorded: femtomolar to low picomolar”, the “concentration giving very strong increase in aggregation (as low as)” value (C. elegans [3]; low worm density (20 worms per plate), solitary and social hermaphrodites) was at most 10 fM and the “aggregation of ASK-ablated hermaphrodites” value (C. elegans [3]; low worm density, any of the tested concentrations) was “do not aggregate; also recorded: did not aggregate”. For the same compound, the “concentration of maximal aggregation, social strain CB4856” value (C. elegans [3]; low worm density, bell-shaped response curve) was 1 pM, the “aggregation of him-5 males” value (C. elegans [3]; plates containing 100 fM or 100 pM of icas#3) was “significantly increased” and the “attraction after ablation of the RMG interneuron” value ([4]; N2 (wild-type) and ncs-1::gfp hermaphrodites) was “does not affect; also recorded: did not affect”. The “attraction after ablation of ASK sensory neurons” value ([4]; hermaphrodites) was “near complete loss of attraction”, the “attraction of both C. elegans sexes” value ([4]; high concentrations, 1 μmol, N2 hermaphrodites and him-5 males) was “attractive; also recorded: attracted” and the “attraction of AIA-deficient worms” value ([4]; in vivo) was “did not show any attraction”. The “attraction of daf-22 hermaphrodites” value ([4]; in vivo) was “attracted; also recorded: as strongly as N2 worms”, the “attraction of social wild-type (RC301, CB4856) and npr-1(ad609) hermaphrodites” value ([4]; in vivo) was “attracted; also recorded: strongly attracted” and the attraction of hermaphrodites ([4]; low concentrations, N2 hermaphrodites) was “strongly attractive”. For the same compound, the worm velocity ([5]; 1-10 pM icas#3) was “not significantly reduced”, the mean stopped duration ([5]; aggregation-inducing concentrations, N2 hermaphrodites) was “strongly increase” and the “forward velocity of ASK-ablated hermaphrodites” value ([5]; in vivo) was “do not display reduced forward velocity”. For the same compound, the “reversal frequency of ASK-ablated hermaphrodites” value ([5]; in vivo) was “does not increase; also recorded: neither increased reversal frequency”, the “Ca2+ transients in ASK neurons” value (ASK neurons) was “no detection” and the “Attract Females/Herm.” value (C. elegans [2]) was “([strong])”. For the same compound, the “Attract Males” value (C. elegans [2]) was “([strong])”, the “G-CaMP fluorescence in AIA interneurons” value (AIA interneurons) was “induces G-CaMP fluorescence signals; also recorded: significantly increased; also recorded: significant changes” and the “chemotaxis of hermaphrodites from all tested strains” value ([6]; 1 pM icas#3, after 15 minutes) was “attracted”. The “chemotaxis of hermaphrodites from all tested strains” value ([6]; 1 μM icas#3, after 30 minutes) was “attracted”, the “attraction of social wild-type (RC301, CB4856) and npr-1(ad609) hermaphrodites” value ([6]; in vivo) was “strongly attracted” and the “response of daf-22 hermaphrodites” value ([6]; in vivo) was “as strongly as N2 worms”. The “concentration resulting in strong attraction of hermaphrodites (as low as)” value ([6]; presence and absence of food) was at most 1 pM.
